Target: T1, human TREM2 (Homo sapiens, UniProt Q9NZC2)
T1 construct: expressed in transfected cells; host or cells: HEK293T
Experiment: TREM2 agonist potency by cellular phosphorylation of Syk (AlphaLisa) in HEK293T-hTREM2 cells
Type: cell-based
Conditions: HEK293 cells expressing human TREM2 and DAP12, Table D
Method in brief: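 Agonist EC50 from a variable-slope four-parameter fit of % activation, based on AlphaLisa phospho-Syk levels in lysates. Cells: HEK293T-hTREM2 (with DAP12), treated 45 min at room temperature with compound in assay buffer.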

T1 sequence (Q9NZC2 19-230): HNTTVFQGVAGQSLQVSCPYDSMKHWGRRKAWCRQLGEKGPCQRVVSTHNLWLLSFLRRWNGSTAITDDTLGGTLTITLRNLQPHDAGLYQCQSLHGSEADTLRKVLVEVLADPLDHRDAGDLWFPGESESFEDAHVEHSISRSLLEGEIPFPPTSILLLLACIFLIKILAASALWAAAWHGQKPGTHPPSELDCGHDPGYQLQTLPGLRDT
T1 sequence (O43914 22-113 partner): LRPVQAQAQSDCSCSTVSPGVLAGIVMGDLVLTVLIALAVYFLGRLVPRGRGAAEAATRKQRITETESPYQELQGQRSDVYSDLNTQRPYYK

EC50 [nM] | SMILES
< 50 | Cc1nc2nc(N3CCO[C@@H](c4cc[nH]c(=O)c4)C3)nc(C34CC(C(F)(F)F)(C3)C4)c2nc1C [Example 198, (S)-4-(4-(6,7-dimethyl-4-(3-(trifluoromethyl)bicyclo[1.1.1]pentan-1-yl)pteridin-2-yl)morpholin-2-yl)pyridin-2(1H)-one]
50 to 500 | Cc1nc2nc(N3CCO[C@H](c4cc[nH]c(=O)c4)C3)nc(C34CC(C(F)(F)F)(C3)C4)c2nc1C [Example 199, (R)-4-(4-(6,7-dimethyl-4-(3-(trifluoromethyl)bicyclo[1.1.1]pentan-1-yl)pteridin-2-yl)morpholin-2-yl)pyridin-2(1H)-one]
500 to 3000 | Cc1nc2nc([C@@H]3CCO[C@H](c4cccc(=O)n4C)C3)nc(-c3ccc(F)cc3F)c2nc1C [Example 202]
3000 to 100000 | Cc1nc2nc([C@H]3CCO[C@@H](c4cccn(C)c4=O)C3)nc(-c3ccc(F)cc3F)c2nc1C [Example 203]
< 50 | Cc1nc2nc(N3CCN(C)C(c4cnn(C5CC5)c4)C3)nc(-c3ccc(Cl)cc3F)c2nc1C (stereo not drawn) [Example 205, 4-(4-chloro-2-fluorophenyl)-2-(3-(1-cyclopropyl-1H-pyrazol-4-yl)-4-methylpiperazin-1-yl)-6,7-dimethylpteridine]
50 to 500 | Cc1nc2nc(N3CCN(C)[C@@H](c4cnn(C5CC5)c4)C3)nc(-c3ccc(Cl)cc3F)c2nc1C [Example 206, (S)-4-(4-chloro-2-fluorophenyl)-2-(3-(1-cyclopropyl-1H-pyrazol-4-yl)-4-methylpiperazin-1-yl)-6,7-dimethylpteridine]
50 to 500 | Cc1cnc2c(-c3ccc(F)cc3F)nc(N3C[C@@H](C)O[C@@H](c4cnn(C5CC5)c4)C3)cc2n1 [Example 209, (2S,6R)-2-(1-cyclopropyl-1H-pyrazol-4-yl)-4-(5-(2,4-difluorophenyl)-2-methylpyrido[3,4-b]pyrazin-7-yl)-6-methylmorpholine]
< 50 | Cc1nc2cc([C@H]3CCO[C@@H](c4cnn(C5CC5)c4)C3)nc(-c3ccc(C(F)(F)F)cc3F)c2nc1C [Example 211, 7-((2R,4S)-2-(1-cyclopropyl-1H-pyrazol-4-yl)tetrahydro-2H-pyran-4-yl)-5-(2-fluoro-4-(trifluoromethyl)phenyl)-2,3-dimethylpyrido[3,4-b]pyrazine]
50 to 500 | Cc1ccc2c(-c3ccc(F)cc3F)nc([C@H]3CCO[C@@H](c4cnn(C5CC5)c4)C3)nc2n1 [Example 215, 2-((2R,4S)-2-(1-cyclopropyl-1H-pyrazol-4-yl)tetrahydro-2H-pyran-4-yl)-4-(2,4-difluorophenyl)-7-methylpyrido[2,3-d]pyrimidine]
< 50 | Cc1cc2c(-c3ccc(Cl)cc3F)nc([C@@H]3CCO[C@@H](c4cnn(C5CC5)c4)C3)nc2nc1C [Example 216, 4-(4-chloro-2-fluorophenyl)-2-((2R,4R)-2-(1-cyclopropyl-1H-pyrazol-4-yl)tetrahydro-2H-pyran-4-yl)-6,7-dimethylpyrido[2,3-d]pyrimidine]
< 50 | Cc1ccc2c(-c3ccc(C(F)(F)F)cc3)nc([C@H]3CCO[C@@H](c4cnn(C5CC5)c4)C3)nc2n1 [Example 217, 2-((2R,4S)-2-(1-cyclopropyl-1H-pyrazol-4-yl)tetrahydro-2H-pyran-4-yl)-7-methyl-4-(4-(trifluoromethyl)phenyl)pyrido [2,3-d]pyrimidine]
500 to 3000 | Cc1cc2nc([C@H]3CCO[C@@H](c4cnn(C5CC5)c4)C3)nc(-c3ccc(Cl)cc3F)c2nc1C [Example 222, 4-(4-chloro-2-fluorophenyl)-2-((2R,4S)-2-(1-cyclopropyl-1H-pyrazol-4-yl)tetrahydro-2H-pyran-4-yl)-6,7-dimethylpyrido[3,2-d]pyrimidine]
50 to 500 | Cc1nc2nc([C@@H]3CCO[C@@H](c4cnn(C5CC5)c4)C3)cc(-c3ccc(Cl)cc3F)c2nc1C [Example 223, 8-(4-chloro-2-fluorophenyl)-6-((2R,4R)-2-(1-cyclopropyl-1H-pyrazol-4-yl)tetrahydro-2H-pyran-4-yl)-2,3-dimethylpyrido[2,3-b]pyrazine]
< 50 | Cc1nc2nc([C@H]3CCO[C@@H](c4cnn(C5CC5)c4)C3)cc(-c3ccc(Cl)cc3F)c2nc1C [Example 224, 8-(4-chloro-2-fluorophenyl)-6-((2R,4S)-2-(1-cyclopropyl-1H-pyrazol-4-yl)tetrahydro-2H-pyran-4-yl)-2,3-dimethylpyrido[2,3-b]pyrazine]

More lines, now with the values behind:

SMILES | EC50 [nM]
Cc1nc2nc([C@@H]3CCO[C@H](c4ccc(=O)n(C)c4)C3)nc(-c3ccc(F)cc3F)c2nc1C [Example 200] | < 50
Cc1nc2nc([C@H]3CCO[C@@H](c4ccc(=O)n(C)c4)C3)nc(-c3ccc(F)cc3F)c2nc1C [Example 201] | 500 to 3000
Cc1nc2nc([C@@H]3CCO[C@H](c4cccn(C)c4=O)C3)nc(-c3ccc(F)cc3F)c2nc1C [Example 204] | 500 to 3000
Cc1nc2nc(N3CCN(C)[C@H](c4cnn(C5CC5)c4)C3)nc(-c3ccc(Cl)cc3F)c2nc1C [Example 207, (R)-4-(4-chloro-2-fluorophenyl)-2-(3-(1-cyclopropyl-1H-pyrazol-4-yl)-4-methylpiperazin-1-yl)-6,7-dimethylpteridine] | < 50
Cc1cnc2c(-c3ccc(F)cc3F)nc(N3C[C@@H](c4cnn(C5CC5)c4)O[C@@H](C)C3)cc2n1 [Example 208, (2R,6S)-2-(1-cyclopropyl-1H-pyrazol-4-yl)-4-(5-(2,4-difluorophenyl)-2-methylpyrido[3,4-b]pyrazin-7-yl)-6-methylmorpholine] | 500 to 3000
Cc1nc2cc([C@H]3CCO[C@@H](c4cnn(C5CC5)c4)C3)nc(-c3ccc(F)cc3F)c2nc1C [Example 210, 7-((2R,4S)-2-(1-cyclopropyl-1H-pyrazol-4-yl)tetrahydro-2H-pyran-4-yl)-5-(2,4-difluorophenyl)-2,3-dimethylpyrido[3,4-b]pyrazine] | < 50
Cc1ccc2c(-c3ccc(Cl)c(F)c3F)nc([C@H]3CCO[C@@H](c4cnn(C5CC5)c4)C3)nc2n1 [Example 218, 4-(4-chloro-2,3-difluorophenyl)-2-((2R,4S)-2-(1-cyclopropyl-1H-pyrazol-4-yl)tetrahydro-2H-pyran-4-yl)-7-methylpyrido[2,3-d]pyrimidine] | < 50
Cc1ccc2c(-c3cc(F)c(Cl)cc3F)nc([C@H]3CCO[C@@H](c4cnn(C5CC5)c4)C3)nc2n1 [Example 219, 4-(4-chloro-2,5-difluorophenyl)-2-((2R,4S)-2-(1-cyclopropyl-1H-pyrazol-4-yl)tetrahydro-2H-pyran-4-yl)-7-methylpyrido[2,3-d]pyrimidine] | < 50
Cc1ccc2c(C34CC(C(F)(F)F)(C3)C4)nc([C@H]3C[C@@H](C)O[C@@H](c4cnn(C5CC5)c4)C3)nc2n1 [Example 220, 2-((2R,4S,6R)-2-(1-cyclopropyl-1H-pyrazol-4-yl)-6-methyltetrahydro-2H-pyran-4-yl)-7-methyl-4-(3-(trifluoromethyl)bicyclo[1.1.1]pentan-1-yl)pyrido[2,3-d]pyrimidine] | 500 to 3000
Cc1ccc2c(C34CC(C(F)(F)F)(C3)C4)nc([C@H]3CCO[C@@H](c4cnn(C5CC5)c4)C3)nc2n1 [Example 221, 2-((2R,4S)-2-(1-cyclopropyl-1H-pyrazol-4-yl)tetrahydro-2H-pyran-4-yl)-7-methyl-4-(3-(trifluoromethyl)bicyclo[1.1.1]pentan-1-yl)pyrido[2,3-d]pyrimidine] | < 50
